In ChEMBL document CHEMBL1201862, “PubChem BioAssay data set” (2004):
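Tested at 5 concentrations; 48 h exposure; 96-well plates; endpoints linearly interpolated, else capped at highest concentration. At the GI50, growth is halved.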 Activity calls are given as the source filed them. Rule as the data show it: active = GI50 up to about 1.1 µM and inactive = higher.

Columns and labels:
Assay in all cases: NCI-60 cell line screen, 48 h
HOP-62 = test system: HOP-62
IGROV-1 = test system: IGROV-1
SNB-78 = test system: SNB-78
SK-MEL-28 = test system: SK-MEL-28
OVCAR-8 = test system: OVCAR-8
NCI-H460 = test system: NCI-H460
UACC-257 = test system: UACC-257
HCT-116 = test system: HCT-116
A498 = test system: A498
SN12C = test system: SN12C
SNB-19 = test system: SNB-19
CCRF-CEM = test system: CCRF-CEM
COLO 205 = test system: COLO 205
LOX IMVI = test system: LOX IMVI
KM12 = test system: KM12
HOP-92 = test system: HOP-92

Measured: GI50

COC(=O)C1=C(C[S+]([O-])c2ccc([N+](=O)[O-])cc2[N+](=O)[O-])ON(C)C1c1ccccc1 (stereo not given)
inactive: HOP-62 39 µM | IGROV-1 > 84.5 µM | SNB-78 33.9 µM | SK-MEL-28 24.2 µM | OVCAR-8 63.7 µM | NCI-H460 > 90.4 µM | UACC-257 50.6 µM | HCT-116 34 µM | A498 > 61.8 µM | SN12C 29.4 µM | SNB-19 32.8 µM | CCRF-CEM 9.06 µM | COLO 205 24.2 µM | LOX IMVI 14.9 µM | KM12 37.2 µM

COC(=O)c1c/c(=N\NC(=O)CC(=O)Nc2ccccc2Cl)c2ccccc2o1
inactive: HOP-62 > 100 µM | IGROV-1 > 100 µM | SNB-78 > 100 µM | SK-MEL-28 > 100 µM | OVCAR-8 > 100 µM | NCI-H460 > 100 µM | UACC-257 > 100 µM | HCT-116 > 100 µM | A498 > 10 µM | SN12C > 100 µM | SNB-19 > 100 µM | COLO 205 > 100 µM | LOX IMVI > 100 µM | KM12 > 100 µM

COc1cc(-c2nccc3cc(OC)c(OC)cc23)ccc1O
inactive: HOP-62 > 100 µM | IGROV-1 80 µM | SNB-78 > 100 µM | SK-MEL-28 > 100 µM | OVCAR-8 44.1 µM | NCI-H460 27.8 µM | UACC-257 69.2 µM | HCT-116 49 µM | SN12C 48.2 µM | SNB-19 68.1 µM | CCRF-CEM 38.5 µM | COLO 205 40.5 µM | HOP-92 23.9 µM | LOX IMVI 36.6 µM | KM12 48.3 µM

Cn1c(=O)c(/N=N/c2c(=O)n(C)c(=O)n3c2[nH]c2ccccc23)c2[nH]c3ccccc3n2c1=O
inactive: HOP-62 57.1 µM | IGROV-1 86.7 µM | SNB-78 > 100 µM | SK-MEL-28 > 100 µM | OVCAR-8 57.9 µM | NCI-H460 9.89 µM | UACC-257 54.2 µM | HCT-116 6.95 µM | A498 90.4 µM | SNB-19 13.2 µM | CCRF-CEM 8.63 µM | COLO 205 > 100 µM | HOP-92 94.2 µM | LOX IMVI 6.24 µM | KM12 > 100 µM

Fc1ccccc1C1CC(c2ccc3ccccc3c2)=Nc2ccccc2S1 (stereo not given)
inactive: HOP-62 > 100 µM | IGROV-1 > 100 µM | SNB-78 > 100 µM | SK-MEL-28 > 100 µM | OVCAR-8 > 100 µM | NCI-H460 > 100 µM | UACC-257 > 100 µM | HCT-116 > 100 µM | A498 > 100 µM | SN12C > 100 µM | SNB-19 > 100 µM | CCRF-CEM > 100 µM | COLO 205 > 100 µM | LOX IMVI > 100 µM | KM12 > 100 µM

CCCCCCCCC(=O)N(C)C1C2CN3CCC(O2)C13 (stereo not given)
inactive: HOP-62 > 100 µM | IGROV-1 > 100 µM | SNB-78 > 100 µM | SK-MEL-28 > 100 µM | NCI-H460 > 100 µM | UACC-257 > 100 µM | HCT-116 > 100 µM | A498 > 100 µM | SN12C > 100 µM | SNB-19 > 100 µM | CCRF-CEM > 100 µM | COLO 205 > 100 µM | LOX IMVI > 100 µM | KM12 > 100 µM

COCCCNC(=O)C1C(=O)N(CCCOC)C(=O)/C1=N\N (stereo not given)
inactive: HOP-62 > 100 µM | SNB-78 > 100 µM | SK-MEL-28 > 100 µM | OVCAR-8 > 100 µM | NCI-H460 > 100 µM | UACC-257 > 100 µM | HCT-116 > 100 µM | A498 > 100 µM | SN12C > 100 µM | SNB-19 > 100 µM | CCRF-CEM > 100 µM | COLO 205 > 100 µM | HOP-92 > 100 µM | KM12 > 100 µM

[O-][Cl+3]([O-])([O-])[O-].c1ccc(C[P+]2(c3ccccc3)CCCCC2)cc1
inactive: HOP-62 > 100 µM | IGROV-1 > 100 µM | SNB-78 > 100 µM | SK-MEL-28 > 100 µM | OVCAR-8 > 100 µM | NCI-H460 > 100 µM | UACC-257 34.4 µM | HCT-116 23.7 µM | A498 > 100 µM | SN12C > 100 µM | SNB-19 > 100 µM | CCRF-CEM > 100 µM | COLO 205 34 µM | LOX IMVI 85.1 µM | KM12 > 100 µM

O=C(CSc1nnc(-c2ccc(/N=C\c3ccc(Cl)cc3)cc2)o1)Nc1ccc(Cl)cc1Cl
inactive: HOP-62 30.5 µM | IGROV-1 32.8 µM | SNB-78 > 100 µM | SK-MEL-28 28 µM | OVCAR-8 28.5 µM | NCI-H460 > 100 µM | UACC-257 25 µM | HCT-116 22 µM | A498 > 100 µM | SN12C 24 µM | SNB-19 31 µM | CCRF-CEM 29.3 µM | COLO 205 30.7 µM | HOP-92 22.3 µM | KM12 28.6 µM

NCCCNCc1c2ccccc2c(CNCCCN)c2ccccc12
inactive: HOP-62 22.9 µM | IGROV-1 44.2 µM | SNB-78 22.5 µM | SK-MEL-28 > 10 µM | OVCAR-8 14.6 µM | NCI-H460 16.4 µM | UACC-257 21.2 µM | HCT-116 5.35 µM | A498 23.1 µM | SN12C 3.66 µM | SNB-19 33.2 µM | CCRF-CEM 16.9 µM | COLO 205 7.66 µM | HOP-92 11.5 µM | KM12 19.2 µM

Cc1cccc(NC(=O)CC2C(=O)Nc3ccccc3S2(=O)=O)c1C (stereo not given)
inactive: HOP-62 22.6 µM | IGROV-1 26.1 µM | SNB-78 26.1 µM | SK-MEL-28 77.6 µM | OVCAR-8 20.2 µM | NCI-H460 22.6 µM | UACC-257 26.9 µM | HCT-116 17.2 µM | A498 30.3 µM | SN12C 97.5 µM | SNB-19 32.1 µM | COLO 205 > 100 µM | HOP-92 19.1 µM | KM12 30.8 µM

CC(O)C(C(=O)O)N(CC1(O)OCC(O)C(O)C1O)N=O (stereo not given)
inactive: HOP-62 > 100 µM | IGROV-1 > 100 µM | SNB-78 > 100 µM | SK-MEL-28 > 100 µM | OVCAR-8 > 100 µM | NCI-H460 > 100 µM | UACC-257 > 100 µM | HCT-116 > 100 µM | A498 > 100 µM | CCRF-CEM > 100 µM | COLO 205 > 100 µM | HOP-92 > 100 µM | LOX IMVI > 100 µM | KM12 > 100 µM

O=C(OCc1ccccc1C1CSCSC1)c1cc(C(=O)OCc2ccccc2C2CSCSC2)c(C(=O)OCc2ccccc2C2CSCSC2)cc1C(=O)OCc1ccccc1C1CSCSC1
inactive: HOP-62 > 100 µM | IGROV-1 > 100 µM | SNB-78 78.9 µM | SK-MEL-28 > 100 µM | OVCAR-8 > 100 µM | NCI-H460 > 100 µM | UACC-257 > 100 µM | HCT-116 > 100 µM | A498 > 100 µM | SN12C > 100 µM | CCRF-CEM > 100 µM | COLO 205 > 100 µM | HOP-92 > 100 µM | LOX IMVI > 100 µM | KM12 > 100 µM
